This note sets out measurements from patent publication US20200010482A1, “INHIBITORS OF BETA SECRETASE” (Janssen Pharmaceutica NV, priority 2017, published 2020).

For experiment [1], the target named is T1, BACE1 (Homo sapiens, UniProt P56817).
T1 construct: recombinant BACE1 protein in a final concentration of 0.04 μg/ml
Description: BACE1 biochemical FRET based assay. The following applies: recombinant BACE1 0.04 μg/ml, 20 μM substrate, 450 min, pH 5.0; for IC50: read-out: BIOCHEMICAL FRET BASED ASSAY pIC50 (converted). An excerpt: (§1) This assay is a Fluorescence Resonance Energy Transfer Assay (FRET) based assay. The substrate for this assay is an APP derived 13 amino acids peptide that contains the ‘Swedish’ Lys-Met/Asn-Leu mutation of the amyloid precursor protein (APP) beta-secretase cleavage site. This substrate also contains two fluorophores: (7-methoxycoumarin-4-yl) acetic acid (Mca) is a fluorescent donor with excitation wavelength at 320 nm and emission at 405 nm and 2,4-Dinitrophenyl (Dnp) is a proprietary quencher acceptor. […] Upon cleavage by BACE1, the fluorophore Mca is separated from the quenching group Dnp, restoring the full fluorescence yield of the donor. The increase in fluorescence is linearly related to the rate of proteolysis.
Briefly in a 384-well format recombinant BACE1 protein in a final concentration of 0.04 μg/ml is incubated for 450 minutes at room temperature with 20 μM substrate in incubation buffer (50 mM Citrate buffer pH 5.0, 0.05% PEG) in the presence of compound or DMSO. Next the amount of proteolysis is directly measured by fluorescence measurement (excitation at 320 nm and emission at 405 nm) at different incubation times (0, 30, 60, 90, 120 and 450 min). For every experiment a time curve (every 30 min between 0 min and 120 min) is used to determine the time where we find the lowest basal signal of the high control. The signal at this time (Tx) is used to subtract from the signal at 450 min. Results are expressed in RFU, as difference between T450 and Tx.
(§2) A best-fit curve is fitted by a minimum sum of squares method to the plot of % Controlmin versus compound concentration. From this an IC50 value (inhibitory concentration causing 50% inhibition of activity) can be obtained. • LC=Median of the low control values=Low control: Reaction without enzyme • HC=Median of the High control values=High Control: Reaction with enzyme
(§3) % Effect=100−[(sample−LC)/(HC−LC)*100]
(§4) % Control=(sample/HC)*100
(§5) % Controlmin=(sample−LC)/(HC−LC)*100

The test system of experiment [2] is Abeta 1-42 produced and secreted by SKNBE2 cells expressing hAPP695. Put plainly: Cellular αLisa assay in SKNBE2 cells, Abeta 1-42. Conditions: SKNBE2 cells expressing hAPP695, 18 hours incubation; for IC50: Homo sapiens, SKNBE2, 18 h, read-out: CELLULAR αLISA ASSAY IN SKNBE2 CELLS ABETA 42 PIC50 (converted). Type of experiment: cell-based, human. On the procedure: (§6) In two αLisa assays the levels of Abeta total and Abeta 1-42 produced and secreted into the medium of human neuroblastoma SKNBE2 cells are quantified. The assay is based on the human neuroblastoma SKNBE2 expressing the wild type Amyloid Precursor Protein (hAPP695). The compounds are diluted and added to these cells, incubated for 18 hours and then measurements of Abeta 1-42 and Abeta total are taken. Abeta total and Abeta 1-42 are measured by sandwich αLisa. αLisa is a sandwich assay using biotinylated antibody AbN/25 attached to streptavidin coated beads and antibody Ab4G8 or cAb42/26 conjugated acceptor beads for the detection of Abeta total and Abeta 1-42 respectively. In the presence of Abeta total or Abeta 1-42, the beads come into close proximity. The excitation of the donor beads provokes the release of singlet oxygen molecules that trigger a cascade of energy transfer in the acceptor beads, resulting in light emission. Light emission is measured after 1 hour incubation (excitation at […] and emission at 615 nm).
(§7) A best-fit curve is fitted by a minimum sum of squares method to the plot of % Controlmin versus compound concentration. From this an IC50 value (inhibitory concentration causing 50% inhibition of activity) can be obtained. • LC=Median of the low control values=Low control: cells preincubated without compound, without biotinylated Ab in the αLisa • HC=Median of the High control values=High Control: cells preincubated without compound
as §3, §4, §5

Experiment [3] concerns the target T2, BACE2 (Homo sapiens, UniProt Q9Y5Z0).
T2 construct: recombinant BACE2 protein in a final concentration of 0.4 μg/ml
T2 sequence (Q9Y5Z0 63-518): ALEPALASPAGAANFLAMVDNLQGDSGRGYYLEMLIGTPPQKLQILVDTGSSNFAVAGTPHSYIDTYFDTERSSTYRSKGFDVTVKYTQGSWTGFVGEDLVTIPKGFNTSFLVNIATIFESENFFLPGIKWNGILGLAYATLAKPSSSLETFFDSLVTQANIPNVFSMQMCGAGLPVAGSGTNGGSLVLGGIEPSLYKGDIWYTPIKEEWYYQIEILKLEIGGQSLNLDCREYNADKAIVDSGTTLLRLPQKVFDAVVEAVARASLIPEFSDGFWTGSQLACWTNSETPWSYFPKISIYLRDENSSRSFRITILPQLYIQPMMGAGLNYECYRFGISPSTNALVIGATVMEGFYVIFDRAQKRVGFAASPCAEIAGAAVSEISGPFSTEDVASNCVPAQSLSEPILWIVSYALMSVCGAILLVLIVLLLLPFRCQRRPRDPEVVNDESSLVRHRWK
Put plainly: BACE2 biochemical FRET based assay. The following applies: recombinant BACE2 0.4 μg/ml, 10 μM substrate, 450 min, pH 5.0; for IC50: read-out: BIOCHEMICAL FRET BASED ASSAY pIC50 (converted).
Excerpt: as §1, with “assay” for “assay is an APP derived 13 amino acids peptide that”, “the beta-secretase,” for “BACE1,”
Briefly in a 384-well format recombinant BACE2 protein in a final concentration of 0.4 μg/ml is incubated for 450 minutes at room temperature with 10 μM substrate in incubation buffer (50 mM Citrate buffer pH 5.0, 0.05% PEG, no DMSO) in the absence or presence of compound. Next the amount of proteolysis is directly measured by fluorescence measurement at T=0 and T=450 (excitation at 320 nm and emission at 405 nm). Results are expressed in RFU (Relative Fluorescence Units), as difference between T450 and TO.
as §2, §3, §4, §5

Experiment [4] deals with Abeta total produced and secreted by SKNBE2 cells expressing hAPP695. Put plainly: Cellular αLisa assay in SKNBE2 cells, Abeta total. Type of experiment: cell-based, human. The following applies: SKNBE2 cells expressing hAPP695, 18 hours incubation; for IC50: Homo sapiens, SKNBE2, 18 h, read-out: CELLULAR αLISA ASSAY IN SKNBE2 CELLS ABETA TOTAL pIC50 (converted). On the procedure: as §6, §7, §3, §4, §5

T1 sequence (P56817 46-501): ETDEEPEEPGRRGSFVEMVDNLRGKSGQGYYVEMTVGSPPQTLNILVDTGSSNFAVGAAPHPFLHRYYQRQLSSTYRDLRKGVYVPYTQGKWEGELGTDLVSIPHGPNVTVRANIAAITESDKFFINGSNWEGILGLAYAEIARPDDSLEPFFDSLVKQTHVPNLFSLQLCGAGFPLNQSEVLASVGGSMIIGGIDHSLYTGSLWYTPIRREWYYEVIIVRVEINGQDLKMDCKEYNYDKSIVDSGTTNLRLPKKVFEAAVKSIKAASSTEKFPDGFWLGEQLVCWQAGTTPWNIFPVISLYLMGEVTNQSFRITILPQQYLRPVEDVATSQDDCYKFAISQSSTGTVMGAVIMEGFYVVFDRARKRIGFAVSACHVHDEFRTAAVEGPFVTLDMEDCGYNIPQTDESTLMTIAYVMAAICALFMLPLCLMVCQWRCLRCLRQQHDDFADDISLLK

On to `NC1=N[C@@]2(c3ccccc3F)Cc3c(cc[nH]c3=O)C[C@H]2CS1` (racemic) [Compound 3], for which the IC50 is 8710 nM in experiment [1], 4070 nM in experiment [2], 9550 nM in experiment [3] and 4680 nM in experiment [4].
Consider `COc1ncc(-c2cnccc2C)c2c1CC1(c3ccc(Cl)cc3F)N=C(N)SCC1C2` (single isomer, unassigned) [Compound 201], for which the values for the IC50 in experiment [1] and in experiment [3] were 6460 nM and > 10000 nM, respectively. Also, the “CELLULAR αLISA ASSAY IN SKNBE2 CELLS ABETA 42 PIC50” value in experiment [2] amounted to 5.64. For the same compound, in experiment [4], the “CELLULAR αLISA ASSAY IN SKNBE2 CELLS ABETA TOTAL pIC50” value was 5.69.
`COc1ncc(-c2cccnc2)c2c1C[C@]1(c3ccc(F)cc3F)N=C(N)SC[C@@H]1C2` (racemic) [Compound 25]: the IC50 is 5.89 nM in experiment [1], 1.7 nM in experiment [2], 12 nM in experiment [3] and 1.91 nM in experiment [4].
On to `COc1nccc2c1C[C@@]1(c3cc(O)ccc3F)N=C(N)SC[C@H]1C2` [Compound 183], for which the IC50 in experiment [1] is 4470 nM; in experiment [2] it was 3090 nM; in experiment [3], 6920 nM; in experiment [4], 3470 nM.
For `COc1ncc(C2CC2)c2c1C[C@]1(c3ccccc3F)N=C(N)SC[C@@H]1C2` (racemic) [Compound 20], in that order: 24.5 nM, 23.4 nM, 14.1 nM and 23.4 nM.
The like results for `COc1nccc2c1CC1(c3cc(O)ccc3F)N=C(N)SCC1C2` (racemic) [Compound 5] were, in that order, 162 nM, 26.3 nM, 63.1 nM and 32.4 nM.
For `COc1ncc(Br)c2c1C[C@]1(c3cc(Oc4ccccn4)ccc3F)N=C(N)SC[C@@H]1C2` [Compound 137], the “BIOCHEMICAL FRET BASED ASSAY pIC50” value in experiment [1] is recorded as 7.97; in experiment [3], 7.72. Also, in experiment [2], the “CELLULAR αLISA ASSAY IN SKNBE2 CELLS ABETA 42 PIC50” value was determined as 7.74. In addition, the “CELLULAR αLISA ASSAY IN SKNBE2 CELLS ABETA TOTAL pIC50” value in experiment [4] is 7.82.
On to `COc1ncc(-c2cccnc2)c2c1C[C@]1(c3ccc(F)cc3F)N=C(N)SC[C@@H]1C2` [Compound 87], for which the IC50 in experiment [1] was 3.8 nM; in experiment [2] it was 0.646 nM; in experiment [3], 7.08 nM; in experiment [4], 0.631 nM.
The like results for `COc1nccc2c1C[C@]1(c3ccccc3F)N=C(N)SC[C@@H]1C2` (racemic) [Compound 2] were, in that order, 158 nM, 53.7 nM, 174 nM and 46.8 nM.
Take `CCOc1nccc2c1CC1(c3ccc(F)cc3F)N=C(N)SCC1C2` (single isomer, unassigned) [Compound 195]: the “BIOCHEMICAL FRET BASED ASSAY pIC50” value is given as 6.9 in experiment [1] and 6.85 in experiment [3]. Also, the “CELLULAR αLISA ASSAY IN SKNBE2 CELLS ABETA 42 PIC50” value in experiment [2] came out at 7.09. Besides, in experiment [4], the “CELLULAR αLISA ASSAY IN SKNBE2 CELLS ABETA TOTAL pIC50” value came to 7.09.
For the compound `CCOc1ncc(C2CC2)c2c1CC1(c3ccc(F)cc3F)N=C(N)SCC1C2` (racemic) [Compound 21], the IC50 is 135 nM in experiment [1], 355 nM in experiment [2], 97.7 nM in experiment [3] and 302 nM in experiment [4].
For `COc1ncc(Br)c2c1CC1(c3ccc(F)cc3F)N=C(N)SCC1C2` (racemic) [Compound 17], in that order: 30.9 nM, 132 nM, 67.6 nM and 145 nM.
Take `COc1nccc2c1C[C@]1(c3ccccc3)N=C(N)SC[C@@H]1C2` (racemic) [Compound 1]: the IC50 in experiment [1] was 398 nM; in experiment [2], 69.2 nM; in experiment [3] it was 468 nM; in experiment [4], 74.1 nM.
The like results for `CCOc1nccc2c1CC1(c3ccc(F)cc3F)N=C(N)SCC1C2` (single isomer, unassigned) [Compound 194] were, in that order, > 10000 nM, > 8910 nM, > 10000 nM and 6920 nM.
`COc1ncc(-c2cc(C#N)ccc2Cl)c2c1C[C@]1(c3ccc(F)cc3F)N=C(N)SC[C@@H]1C2` [Compound 53]: the “BIOCHEMICAL FRET BASED ASSAY pIC50” value in experiment [1] is listed as 7.97; in experiment [3], 6.84. Further, the “CELLULAR αLISA ASSAY IN SKNBE2 CELLS ABETA 42 PIC50” value in experiment [2] is recorded as 7.84. Also, the “CELLULAR αLISA ASSAY IN SKNBE2 CELLS ABETA TOTAL pIC50” value in experiment [4] was found to be 7.9.
Take `COc1nccc2c1C[C@@]1(c3ccc(F)cc3F)N=C(N)SC[C@H]1C2` [Compound 182]: the IC50 is 4790 nM in experiment [1], 1290 nM in experiment [2], 6170 nM in experiment [3] and 1320 nM in experiment [4].
For `COc1ncc(-c2cnccc2C)c2c1C[C@@]1(c3cc(-c4cncnc4)ccc3F)N=C(N)SC[C@H]1C2` [Compound 193], the “BIOCHEMICAL FRET BASED ASSAY pIC50” value in experiment [1] is on record as 5.26; in experiment [3], <5. For the same compound, the “CELLULAR αLISA ASSAY IN SKNBE2 CELLS ABETA 42 PIC50” value in experiment [2] is 6.01. For the same compound, in experiment [4], the “CELLULAR αLISA ASSAY IN SKNBE2 CELLS ABETA TOTAL pIC50” value came out at 5.9.
For the compound `CCOC(=O)c1cnc(OC)c2c1C[C@H]1CSC(N)=N[C@@]1(c1ccc(F)cc1F)C2` (racemic) [Compound 24], the IC50 in experiment [1] is 13.8 nM; in experiment [2], 6.92 nM; in experiment [3], 12.3 nM; in experiment [4] it was 6.61 nM.
